This is an account of results in patent publication US12583866B2, “Pyrido[2,3-b][1,4]oxazines or tetrahydropyrido[2,3-b][1,4]oxazepines as IAP antagonists” (BEIGENE, LTD., priority 2020, dated 2026).

The target in experiment [1] is T1, recombinant human cIAP2-BIR3 protein (Homo sapiens, UniProt Q13489).
T1 construct: recombinant human cIAP2-BIR3 protein; purchased Reaction biology APT-11-372
Kind of experiment: Recombinant human c-IAP2-BIR3 biochemical assay (HTRF, peptide displacement). The following applies: 3.7 nM cIAP2-BIR3, 3.7 nM AbuRPF-K(5-Fam)-NH2 peptide, read-out: Protein binding IC50 (nM) c-IAP2. The method in brief: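 HTRF peptide-displacement readout (ex337, em520/490 ratio) after sequential 1 h room-temperature steps: compound with 3.7 nM protein, then 3.7 nM 5-Fam-labelled AbuRPF peptide, then Tb-cryptate anti-6His antibody. Buffer pH 7.5 HEPES with NaCl, Tween-20, DTT; 10-point 4-fold dilutions from 10 uM; four-parameter logistic IC50.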
(In TR-FRET formats the signal depends on donor and acceptor labels being close together.)

For experiment [2], the target named is T2, recombinant human XIAP-BIR3 protein (Homo sapiens, UniProt P98170).
T2 construct: recombinant human XIAP-BIR3 protein; purchased Reaction biology APT-11-374
T2 sequence (P98170 241-356 limits assumed): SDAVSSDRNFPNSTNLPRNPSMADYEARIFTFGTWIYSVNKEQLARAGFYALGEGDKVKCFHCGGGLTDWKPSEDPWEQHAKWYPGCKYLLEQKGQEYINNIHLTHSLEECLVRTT
The experiment is described as follows: Recombinant human XIAP-BIR3 biochemical assay (HTRF, peptide displacement). Particulars: 3.7 nM XIAP-BIR3, 7.6 nM AbuRPF-K(5-Fam)-NH2 peptide, read-out: Protein binding IC50 (nM) XIAP. The method in brief:
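HTRF peptide displacement with 7.6 nM 5-Fam-labelled AbuRPF peptide, anti-6His Tb donor and 3.7 nM recombinant XIAP-BIR3. Protein and compound (10-point, 4-fold from 10 µM) were preincubated 1 h RT in HEPES pH 7.5 buffer before each addition, each 1 h. IC50 by four-parameter fit of the 520/490 nm ratio.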

The target of experiment [3] is T3, recombinant human cIAP1-BIR3 protein (Homo sapiens, UniProt Q13490).
T3 construct: recombinant human cIAP1-BIR3 protein; purchased Reaction biology APT-11-370
T3 sequence (Q13490 253-363 limits assumed): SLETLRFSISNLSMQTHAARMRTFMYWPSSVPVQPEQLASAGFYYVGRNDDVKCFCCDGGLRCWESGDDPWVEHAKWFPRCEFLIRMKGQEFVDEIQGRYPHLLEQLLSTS
Kind of experiment: Recombinant human c-IAP1-BIR3 biochemical assay (HTRF, peptide displacement). Particulars: 1.2 nM cIAP1-BIR3, 3 nM AbuRPF-K(5-Fam)-NH2 peptide, read-out: Protein binding IC50 (nM) c-IAP1. The method in brief:
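HTRF peptide displacement: after 1 h compound pre-incubation (max 10 uM, 4-fold dilutions, 10 points) with 1.2 nM protein in HEPES pH 7.5 buffer, 3 nM 5-Fam-labelled AbuRPF-K peptide and Tb-anti-6His were each added for 1 h at room temperature. Inhibition taken from 520/490 nm ratio, fitted four-parameter logistic for IC50.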

T1 sequence (Q13489 238-349 limits assumed): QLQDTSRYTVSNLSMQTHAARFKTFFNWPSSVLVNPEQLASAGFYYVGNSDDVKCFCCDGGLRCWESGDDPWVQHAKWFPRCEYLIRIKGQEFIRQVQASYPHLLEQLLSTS

For the compound `CC(C)[C@H]1COc2ncc(Cc3ccc(F)cc3)cc2N1C(=O)CN1C[C@@H](C)NC[C@@H]1CN1CCOC[C@H]1C` [Compound 47, 1-((S)-7-(4-fluorobenzyl)-2-isopropyl-2,3-dihydro-1H-pyrido[2,3-b][1,4]oxazin-1-yl)-2-((2R,5R)-5-methyl-2-(((R)-3-methylmorpholino)methyl)piperazin-1-yl)ethan-1-one], the IC50 (as a rule, the midpoint of a concentration-inhibition curve) in experiment [1] stood at 1.43 nM; in experiment [2], 84 nM; in experiment [3], 0.57 nM.

In the case of `C[C@@H]1CN(CC(=O)N2c3cc(Cc4ccc(F)cc4)c(CO)nc3OC[C@@H]2C)[C@@H](CN2CCOCC2(C)C)CN1` [Compound 48], the figures for the IC50 in experiment [1], in experiment [2] and in experiment [3] were 0.79 nM, 12 nM and 0.45 nM, respectively.

With `C[C@@H]1CN(CC(=O)N2c3cc(Cc4ccc(F)cc4)c(CO)nc3OC[C@@H]2C)[C@@H](CN2C[C@H](C)OC[C@H]2C)CN1` [Compound 49], the results for the IC50 in experiment [1], in experiment [2] and in experiment [3] were 0.48 nM, 3.6 nM and 0.3 nM, respectively.

Regarding `C[C@@H]1CN(CC(=O)N2c3cc(Cc4ccc(F)cc4)c(CO)nc3OC[C@@H]2C)[C@@H](CN2CCOCC23CC3)CN1` [Compound 50, 2-((2R,5R)-2-((7-oxa-4-azaspiro[2.5]octan-4-yl)methyl)-5-methylpiperazin-1-yl)-1-((S)-7-(4-fluorobenzyl)-6-(hydroxymethyl)-2-methyl-2,3-dihydro-1H-pyrido[2,3-b][1,4]oxazin-1-yl)ethan-1-one], the IC50 in experiment [1] was determined as 0.93 nM; in experiment [2], 14 nM; in experiment [3], 0.44 nM.

Consider `CC[C@@H]1COCCN1C[C@H]1CN[C@H](C)CN1CC(=O)N1c2cc(Cc3ccc(F)cc3)c(CO)nc2OC[C@@H]1C` [Compound 51, 2-((2R,5R)-2-(((R)-3-ethylmorpholino)methyl)-5-methylpiperazin-1-yl)-1-((S)-7-(4-fluorobenzyl)-6-(hydroxymethyl)-2-methyl-2,3-dihydro-1H-pyrido[2,3-b][1,4]oxazin-1-yl)ethan-1-one], for which the figures for the IC50 in experiment [1], in experiment [2] and in experiment [3] were 0.67 nM, 9.2 nM and 0.3 nM, respectively.

With `COC[C@@H]1COCCN1C[C@H]1CN[C@H](C)CN1CC(=O)N1c2cc(Cc3ccc(F)cc3)c(CO)nc2OC[C@@H]1C` [Compound 52, 1-((S)-7-(4-fluorobenzyl)-6-(hydroxymethyl)-2-methyl-2,3-dihydro-1H-pyrido[2,3-b][1,4]oxazin-1-yl)-2-((2R,5R)-2-(((R)-3-(methoxymethyl)morpholino)methyl)-5-methylpiperazin-1-yl)ethan-1-one], the IC50 in experiment [1] came out at 1.1 nM; in experiment [2], 13 nM; in experiment [3] it was 0.55 nM.

On to `CCOC[C@@H]1COCCN1C[C@H]1CN[C@H](C)CN1CC(=O)N1c2cc(Cc3ccc(F)cc3)c(CO)nc2OC[C@@H]1C` [Compound 53], for which the IC50 was determined as 1.2 nM in experiment [1], 12 nM in experiment [2] and 0.46 nM in experiment [3].

As for `C[C@@H]1CN(CC(=O)N2c3cc(Cc4ccc(F)cc4)c(CO)nc3OC[C@@H]2C)[C@@H](CN2CCOC[C@H]2CO)CN1` [Compound 54, 1-((S)-7-(4-fluorobenzyl)-6-(hydroxymethyl)-2-methyl-2,3-dihydro-1H-pyrido[2,3-b][1,4]oxazin-1-yl)-2-((2R,5R)-2-(((R)-3-(hydroxymethyl)morpholino)methyl)-5-methylpiperazin-1-yl)ethan-1-one], the IC50 in experiment [1] amounted to 2.8 nM; in experiment [2] it was 25 nM; in experiment [3] it was 1.7 nM.

As to `C[C@@H]1CN(CC(=O)N2c3cc(Cc4ccc(F)cc4)c(CO)nc3OC[C@@H]2C)[C@@H](CN2CCOC[C@H]2C(F)F)CN1` [Compound 55], the IC50 in experiment [1] was found to be 1.9 nM; in experiment [2], 34 nM; in experiment [3] it was 1.3 nM.

Regarding `C[C@@H]1CN(CC(=O)N2c3cc(Cc4ccc(F)cc4)c(CO)nc3OC[C@@H]2C)[C@@H](CN2CCOCC23CCC3)CN1` [Compound 56, 2-((2R,5R)-2-((8-oxa-5-azaspiro[3.5]nonan-5-yl)methyl)-5-methylpiperazin-1-yl)-1-((S)-7-(4-fluorobenzyl)-6-(hydroxymethyl)-2-methyl-2,3-dihydro-1H-pyrido[2,3-b][1,4]oxazin-1-yl)ethan-1-one], the IC50 in experiment [1] was 2.2 nM; in experiment [2], 30 nM; in experiment [3], 1 nM.

With `COC[C@H]1COc2nc(CO)c(Cc3ccc(F)cc3)cc2N1C(=O)CN1C[C@@H](C)NC[C@@H]1CN1CCOC[C@H]1C` [Compound 57, 1-((S)-7-(4-fluorobenzyl)-6-(hydroxymethyl)-2-(methoxymethyl)-2,3-dihydro-1H-pyrido[2,3-b][1,4]oxazin-1-yl)-2-((2R,5R)-5-methyl-2-(((R)-3-methylmorpholino)methyl)piperazin-1-yl)ethan-1-one], the half-maximal inhibitory concentration (IC50) is 1.9 nM in experiment [1], 95 nM in experiment [2] and 1.2 nM in experiment [3].

As to `COC[C@H]1COc2nc(CO)c(Cc3ccc(F)cc3)cc2N1C(=O)CN1C[C@@H](C)NC[C@@H]1CN1[C@H](C)COC[C@H]1C` [Compound 58, 2-((2R,5R)-2-(((3R,5R)-3,5-dimethylmorpholino)methyl)-5-methylpiperazin-1-yl)-1-((S)-7-(4-fluorobenzyl)-6-(hydroxymethyl)-2-(methoxymethyl)-2,3-dihydro-1H-pyrido[2,3-b][1,4]oxazin-1-yl)ethan-1-one], the IC50 worked out at 0.17 nM in experiment [1], 9.5 nM in experiment [2] and 0.11 nM in experiment [3].

On to `CC(C)OC[C@@H]1COCCN1C[C@H]1CN[C@H](C)CN1CC(=O)N1c2cc(Cc3ccc(F)cc3)c(CO)nc2OC[C@@H]1C` [Compound 59], for which the values for the IC50 in experiment [1], in experiment [2] and in experiment [3] were 0.67 nM, 7.8 nM and 0.26 nM, respectively.

Regarding `C[C@@H]1CN(CC(=O)N2c3cc(Cc4ccc(F)cc4)c(CO)nc3OC[C@@H]2C)[C@@H](CN2C3CCC2COC3)CN1` [Compound 86], the IC50 in experiment [1] is 0.95 nM; in experiment [2] it was 15 nM; in experiment [3] it was 0.89 nM.

As to `CCOc1nc2c(cc1Cc1ccc(F)cc1)N(C(=O)CN1C[C@@H](C)NC[C@@H]1CN1[C@H](C)COC[C@H]1C)[C@@H](C)CO2` [Compound 87], the half-maximal inhibitory concentration (IC50) in experiment [1] is 0.23 nM; in experiment [2] it was 3.3 nM; in experiment [3], 0.18 nM.

For the compound `C[C@@H]1CN(CC(=O)N2c3cc(Cc4ccc(F)cc4)c(C(N)=O)nc3OC[C@@H]2C)[C@@H](CN2CCOCC23CC3)CN1` [Compound 88, (S)-1-(2-((2R,5R)-2-((7-oxa-4-azaspiro[2.5]octan-4-yl)methyl)-5-methylpiperazin-1-yl)acetyl)-7-(4-fluorobenzyl)-2-methyl-2,3-dihydro-1H-pyrido[2,3-b][1,4]oxazine-6-carboxamide], the IC50 came out at 0.63 nM in experiment [1], 12.4 nM in experiment [2] and 0.35 nM in experiment [3].

Consider `COCCOc1nc2c(cc1Cc1ccc(F)cc1)N(C(=O)CN1C[C@@H](C)NC[C@@H]1CN1[C@H](C)COC[C@H]1C)[C@@H](C)CO2` [Compound 89, 2-((2R,5R)-2-(((3R,5R)-3,5-dimethylmorpholino)methyl)-5-methylpiperazin-1-yl)-1-((S)-7-(4-fluorobenzyl)-6-(2-methoxyethoxy)-2-methyl-2,3-dihydro-1H-pyrido[2,3-b][1,4]oxazin-1-yl)ethan-1-one], for which the 50% inhibitory concentration (IC50) in experiment [1] came out at 0.36 nM; in experiment [2], 3.1 nM; in experiment [3], 0.17 nM.

On to `C[C@@H]1CN(CC(=O)N2c3cc(Cc4ccc(F)cc4)c(OCCN4CCOCC4)nc3OC[C@@H]2C)[C@@H](CN2[C@H](C)COC[C@H]2C)CN1` [Compound 90], for which the IC50 in experiment [1] was 0.34 nM; in experiment [2], 3.8 nM; in experiment [3], 0.22 nM.

In the case of `C[C@@H]1CN(CC(=O)N2c3cc(Cc4ccc(F)cc4)c(CO)nc3OC[C@@H]2C)[C@@H](CN2CCOC[C@H]2C(F)(F)F)CN1` [Compound 91A, 1-((S)-7-(4-fluorobenzyl)-6-(hydroxymethyl)-2-methyl-2,3-dihydro-1H-pyrido[2,3-b][1,4]oxazin-1-yl)-2-((2R,5R)-5-methyl-2-(((S)-3-(trifluoromethyl)morpholino)methyl)piperazin-1-yl)ethan-1-one], the IC50 in experiment [1] was 1.25 nM; in experiment [2], 30 nM; in experiment [3], 0.72 nM.

As to `C[C@@H]1CN(CC(=O)N2c3cc(Cc4ccc(F)cc4)c(CO)nc3OC[C@@H]2C)[C@@H](CN2CCOC[C@@H]2C(F)(F)F)CN1` [Compound 91B, 1-((S)-7-(4-fluorobenzyl)-6-(hydroxymethyl)-2-methyl-2,3-dihydro-1H-pyrido[2,3-b][1,4]oxazin-1-yl)-2-((2R,5R)-5-methyl-2-(((R)-3-(trifluoromethyl)morpholino)methyl)piperazin-1-yl)ethan-1-one], the IC50 was 108 nM in experiment [1], 543 nM in experiment [2] and 47 nM in experiment [3].
